Results reported in PubChem BioAssay AID200 (DTP/NCI, 2004).
Values joined by “and” are separate entries in the source; they are usually repeats but may differ in a detail not shown here. Equal entries are not always repeated. Inconclusive results and toxic doses are left out. The calls were made as follows: active = survival T/C of 150% or more; inactive = T/C below 125% in these data. Where a SMILES comes first, the peptide text is derived from it.

Tested on: B6C3F1 mice, B16 melanoma ip, median survival T/C
Assay: NCI In Vivo Anticancer Drug Screen. Data for tumor model B16 Melanoma (intraperitoneal) in B6C3F1 mice
Details: endpoint: median survival time, higher = longer survival
In short: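 Mice bearing transplanted tumor were dosed with compound or vehicle, and survival was recorded. Activity is expressed as the treated-group measurement (T) divided by the vehicle control measurement (C).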

[1] = dose: 200.0 mg/kg/injection, schedule: Q01DX009 (ip), vehicle: saline with Tween-80
[2] = dose: 100.0 mg/kg/injection, schedule: Q01DX009 (ip), vehicle: Klucel (hydroxypropylcellulose) (HPC)
[3] = dose: 200.0 mg/kg/injection, schedule: Q01DX009 (ip), vehicle: Klucel (hydroxypropylcellulose) (HPC)
[4] = dose: 12.5 mg/kg/injection, schedule: Q01DX009 (ip), vehicle: saline
[5] = dose: 25.0 mg/kg/injection, schedule: Q01DX009 (ip), vehicle: saline
[6] = dose: 50.0 mg/kg/injection, schedule: Q01DX009 (ip), vehicle: saline
[7] = dose: 100.0 mg/kg/injection, schedule: Q01DX009 (ip), vehicle: saline
[8] = dose: 200.0 mg/kg/injection, schedule: Q01DX009 (ip), vehicle: saline
[9] = dose: 0.25 mg/kg/injection, schedule: Q01DX009 (ip), vehicle: Klucel (hydroxypropylcellulose) (HPC)
[10] = dose: 0.5 mg/kg/injection, schedule: Q01DX009 (ip), vehicle: Klucel (hydroxypropylcellulose) (HPC)
[11] = dose: 25.0 mg/kg/injection, schedule: Q01DX009 (ip), vehicle: Klucel (hydroxypropylcellulose) (HPC)
[12] = dose: 50.0 mg/kg/injection, schedule: Q01DX009 (ip), vehicle: Klucel (hydroxypropylcellulose) (HPC)
[13] = dose: 400.0 mg/kg/injection, schedule: Q01DX009 (ip), vehicle: saline

Measured: T/C

CCCCCCCCCCC(OC(C)=O)C1CCC(C2CCC(C(O)CCCCCCCCCCCCC3C=C(C)OC3=O)O2)O1 (configuration not stated)
inactive: dose: 0.25 mg/kg/injection, schedule: Q01DX009 (ip), vehicle: water 97 % of control | dose: 0.5 mg/kg/injection, schedule: Q01DX009 (ip), vehicle: water 95 % of control | dose: 1.0 mg/kg/injection, schedule: Q01DX009 (ip), vehicle: water 93 % of control | dose: 2.0 mg/kg/injection, schedule: Q01DX009 (ip), vehicle: water 100 % of control | dose: 4.0 mg/kg/injection, schedule: Q01DX009 (ip), vehicle: water 100 % of control

COc1nc2c(=O)[nH]c(N)nc2n1C1OC(CO)C(O)C1O (configuration not stated)
inactive: dose: 100.0 mg/kg/injection, schedule: Q01DX009 (ip), vehicle: saline with Tween-80 96 % of control | [1] 93 % of control | dose: 400.0 mg/kg/injection, schedule: Q01DX009 (ip), vehicle: saline with Tween-80 91 % of control

CCCCC(NC(=O)CNC(=O)CNC(=O)OCc1ccccc1)C(=O)O (configuration not stated) (HELM PEPTIDE1{[O=C(OCc1ccccc1)[*:2]].G.G.[CCCCC(N[*:1])C(=O)O]}$$$$V2.0)
inactive: [2] 102 % of control | [3] 105 % of control | dose: 400.0 mg/kg/injection, schedule: Q01DX009 (ip), vehicle: Klucel (hydroxypropylcellulose) (HPC) 96 % of control

C[N+](C)(C)c1ncnc2nc[nH]c12
inactive: [4] 98 % of control | [5] 100 % of control | [6] 114 % of control and 88 % of control | [7] 93 % of control and 103 % of control | [8] 93 % of control

C=C(OP(=O)(OC)OC)Sc1ccccc1C
inactive: dose: 0.06 mg/kg/injection, schedule: Q01DX009 (ip), vehicle: Klucel (hydroxypropylcellulose) (HPC) 94 % of control | dose: 0.12 mg/kg/injection, schedule: Q01DX009 (ip), vehicle: Klucel (hydroxypropylcellulose) (HPC) 102 % of control | [9] 104 % of control | dose: 0.38 mg/kg/injection, schedule: Q01DX009 (ip), vehicle: Klucel (hydroxypropylcellulose) (HPC) 121 % of control | [10] 100 % of control | dose: 0.75 mg/kg/injection, schedule: Q01DX009 (ip), vehicle: Klucel (hydroxypropylcellulose) (HPC) 107 % of control

[Cl][Hg][Cl]
inactive: dose: 0.05 mg/kg/injection, schedule: Q01DX009 (ip), vehicle: saline 105 % of control | dose: 0.06 mg/kg/injection, schedule: Q01DX009 (ip), vehicle: saline 96 % of control | dose: 0.1 mg/kg/injection, schedule: Q01DX009 (ip), vehicle: saline 97 % of control | dose: 0.12 mg/kg/injection, schedule: Q01DX009 (ip), vehicle: saline 104 % of control | dose: 0.2 mg/kg/injection, schedule: Q01DX009 (ip), vehicle: saline 100 % of control | dose: 0.25 mg/kg/injection, schedule: Q01DX009 (ip), vehicle: saline 104 % of control | dose: 0.4 mg/kg/injection, schedule: Q01DX009 (ip), vehicle: saline 102 % of control | dose: 0.5 mg/kg/injection, schedule: Q01DX009 (ip), vehicle: saline 86 % of control | dose: 0.8 mg/kg/injection, schedule: Q01DX009 (ip), vehicle: saline 86 % of control

CCN(C)N=Nc1ccc(C(N)=O)cc1
inactive: dose: 6.25 mg/kg/injection, schedule: Q01DX009 (ip), vehicle: Klucel (hydroxypropylcellulose) (HPC) 117 % of control and 95 % of control | dose: 12.5 mg/kg/injection, schedule: Q01DX009 (ip), vehicle: Klucel (hydroxypropylcellulose) (HPC) 104 % of control and 106 % of control | [11] 95 % of control and 101 % of control | [12] 110 % of control and 102 % of control

COC(OC(CO)C(O)S(=O)(=O)O)C(O)S(=O)(=O)O (configuration not stated)
active: [7] 155 % of control
inactive: [4] 108 % of control | [5] 115 % of control

C=C1C(=O)C2=CC1CCC(=O)C1(C)CCC(OC(C)=O)C(C)(C)C1CC2O (configuration not stated)
inactive: dose: 1.88 mg/kg/injection, schedule: Q01DX009 (ip), vehicle: Klucel (hydroxypropylcellulose) (HPC) 96 % of control | dose: 3.75 mg/kg/injection, schedule: Q01DX009 (ip), vehicle: Klucel (hydroxypropylcellulose) (HPC) 104 % of control and 106 % of control | dose: 7.5 mg/kg/injection, schedule: Q01DX009 (ip), vehicle: Klucel (hydroxypropylcellulose) (HPC) 111 % of control and 89 % of control | dose: 15.0 mg/kg/injection, schedule: Q01DX009 (ip), vehicle: Klucel (hydroxypropylcellulose) (HPC) 114 % of control and 100 % of control | dose: 30.0 mg/kg/injection, schedule: Q01DX009 (ip), vehicle: Klucel (hydroxypropylcellulose) (HPC) 118 % of control and 104 % of control

Cc1ccc(C(=N)c2ccccc2Cc2cccc3ccccc23)c(C)c1
inactive: dose: 0.75 mg/kg/injection, schedule: Q01DX009 (ip), vehicle: saline with Tween-80 107 % of control | dose: 1.5 mg/kg/injection, schedule: Q01DX009 (ip), vehicle: saline with Tween-80 112 % of control | dose: 3.0 mg/kg/injection, schedule: Q01DX009 (ip), vehicle: saline with Tween-80 97 % of control | dose: 6.0 mg/kg/injection, schedule: Q01DX009 (ip), vehicle: saline with Tween-80 98 % of control

NC(CNC(=O)CBr)C(=O)O (configuration not stated)
inactive: dose: 6.25 mg/kg/injection, schedule: Q01DX009 (ip), vehicle: water 112 % of control and 117 % of control and 104 % of control | dose: 12.5 mg/kg/injection, schedule: Q01DX009 (ip), vehicle: water 116 % of control and 118 % of control
active: dose: 50.0 mg/kg/injection, schedule: Q01DX009 (ip), vehicle: water 153 % of control

CCCCCNc1ncnc2c(C)[nH]nc12
inactive: [11] 100 % of control | [12] 91 % of control | [2] 86 % of control

CN(C)N=Nc1cccc(C(N)=O)c1
inactive: [6] 119 % of control | [7] 67 % of control

COc1ccc([C@@]23Oc4cc(OC)cc(OC)c4[C@]2(O)[C@H](O)[C@H](C(=O)N(C)C)[C@H]3c2ccccc2)cc1
inactive: [9] 97 % of control | [10] 119 % of control and 91 % of control and 106 % of control | dose: 1.0 mg/kg/injection, schedule: Q01DX009 (ip), vehicle: Klucel (hydroxypropylcellulose) (HPC) 112 % of control and 117 % of control | dose: 2.0 mg/kg/injection, schedule: Q01DX009 (ip), vehicle: Klucel (hydroxypropylcellulose) (HPC) 103 % of control and 104 % of control and 106 % of control

CC(C)(C)OC(=O)NC(CCC(=O)O)C(=O)O (configuration not stated)
inactive: [7] 107 % of control | [8] 107 % of control | [13] 94 % of control

NC(=O)c1ncn2c(=O)n(CCCl)nnc12
active: dose: 12.5 mg/kg/injection, schedule: Q01DX009 (ip), vehicle: suspension in saline 225 % of control | dose: 25.0 mg/kg/injection, schedule: Q01DX009 (ip), vehicle: suspension in saline 209 % of control
inactive: dose: 3.13 mg/kg/injection, schedule: Q01DX009 (ip), vehicle: suspension in saline 123 % of control

O=NN(CCCl)C(=O)NC1[C@H](O)CCC[C@@H]1O (some centres not stated)
active: dose: 0.62 mg/kg/injection, schedule: Q01DX009 (ip), vehicle: saline 159 % of control | dose: 1.25 mg/kg/injection, schedule: Q01DX009 (ip), vehicle: saline 225 % of control | dose: 2.5 mg/kg/injection, schedule: Q01DX009 (ip), vehicle: saline 251 % of control | dose: 5.0 mg/kg/injection, schedule: Q01DX009 (ip), vehicle: saline 190 % of control

O=C(Cl)c1ccccc1S(=O)(=O)N(CCOc1ccccc1)c1ccccc1
inactive: [12] 90 % of control | [2] 94 % of control | [3] 90 % of control

COc1ccc(/C(C#N)=C2\OC(=O)c3ccccc32)cc1OC
inactive: dose: 3.12 mg/kg/injection, schedule: Q01DX009 (ip), vehicle: saline with Tween-80 95 % of control | dose: 6.25 mg/kg/injection, schedule: Q01DX009 (ip), vehicle: saline with Tween-80 93 % of control | dose: 12.5 mg/kg/injection, schedule: Q01DX009 (ip), vehicle: saline with Tween-80 107 % of control | dose: 25.0 mg/kg/injection, schedule: Q01DX009 (ip), vehicle: saline with Tween-80 88 % of control | dose: 50.0 mg/kg/injection, schedule: Q01DX009 (ip), vehicle: saline with Tween-80 91 % of control | [1] 88 % of control

COc1cccc2c1C(=O)c1c(O)c3c(c(O)c1C2=O)C[C@@](O)(c1csc(N)n1)C[C@@H]3OC1CC(N)C(O)C(C)O1 (some centres not stated)
active: dose: 25.0 mg/kg/injection, schedule: Q01DX001 (ip), vehicle: water 154 % of control

CC(NC(=O)C1CCCN1C(=O)CN)C(=O)O (configuration not stated)
inactive: [7] 105 % of control | [8] 92 % of control | [13] 96 % of control
